Laboratory results: patent US20200055817A1 (AbbVie Deutschland GmbH & Co. KG, priority 2016, published 2020)

Experiments:
Type in all cases: cell-based
[1] = molecular target: T1, human EDG8 (S1PR5) receptor (Homo sapiens, UniProt Q9H228); experiment: Aequorin assay, agonist potency, CHO-A21-EDG8#12 cells; settings: agonist mode, aequorin luminescence; read-out: S1P5 EC50 range #
T1 construct: carries the transgenes human EDG8 (S1PR5) receptor (Acession number NP_110387.1); expressed in transfected cells; host or cells: CHO-A21-EDG8#12 (CHO clone co-expressing mitochondrial aequorin and chimaeric Gaqi5)
T1 sequence (Q9H228 whole entry): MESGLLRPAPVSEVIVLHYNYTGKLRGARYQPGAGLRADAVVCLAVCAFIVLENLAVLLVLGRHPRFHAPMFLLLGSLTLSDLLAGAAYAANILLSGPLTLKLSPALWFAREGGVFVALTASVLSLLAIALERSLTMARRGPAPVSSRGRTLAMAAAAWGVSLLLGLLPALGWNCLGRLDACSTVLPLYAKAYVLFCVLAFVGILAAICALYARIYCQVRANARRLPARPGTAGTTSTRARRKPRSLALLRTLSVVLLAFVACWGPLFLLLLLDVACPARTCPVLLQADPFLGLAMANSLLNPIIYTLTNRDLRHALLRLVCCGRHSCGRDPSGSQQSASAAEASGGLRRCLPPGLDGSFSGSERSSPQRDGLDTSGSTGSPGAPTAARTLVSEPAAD
Procedure, shortened: (§1)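 CHO cells coexpressing receptor, mitochondrial aequorin and Gαqi5 (S1P3 pool: GNA16) were loaded overnight at RT with 5 μM coelenterazine h in 0.1% fatty-acid-free BSA buffer. Cells were injected onto compound, luminescence recorded 90 s and integrated, normalised to digitonin or 20 μM ATP; sigmoidal fit.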

[2] = molecular target: T2, human EDG1 (S1PR1) receptor (Homo sapiens, UniProt P21453); experiment: Aequorin assay, agonist potency, CHO-A21-Edg1#17 cells; settings: agonist mode, aequorin luminescence; read-out: S1P1 EC50
T2 construct: expressed in transfected cells; host or cells: CHO-A21-Edg1#17 (CHO clone co-expressing mitochondrial aequorin and chimaeric Gaqi5)
T2 sequence (P21453 whole entry): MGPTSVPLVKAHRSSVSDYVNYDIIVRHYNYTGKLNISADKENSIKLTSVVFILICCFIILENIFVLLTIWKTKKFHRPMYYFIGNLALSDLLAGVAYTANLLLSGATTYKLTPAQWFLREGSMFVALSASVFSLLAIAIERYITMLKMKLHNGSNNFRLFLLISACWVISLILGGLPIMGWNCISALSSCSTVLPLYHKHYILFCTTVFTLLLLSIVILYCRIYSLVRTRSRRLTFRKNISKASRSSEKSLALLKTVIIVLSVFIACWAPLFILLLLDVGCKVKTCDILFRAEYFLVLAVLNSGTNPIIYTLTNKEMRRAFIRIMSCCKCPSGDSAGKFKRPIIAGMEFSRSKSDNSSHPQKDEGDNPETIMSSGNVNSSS
Procedure, shortened: as §1

S1P4 = molecular target: T3, S1P4 (Homo sapiens, UniProt O95977); experiment: Aequorin assay, agonist potency, S1P4; settings: agonist mode, aequorin luminescence
T3 sequence (O95977 1-384): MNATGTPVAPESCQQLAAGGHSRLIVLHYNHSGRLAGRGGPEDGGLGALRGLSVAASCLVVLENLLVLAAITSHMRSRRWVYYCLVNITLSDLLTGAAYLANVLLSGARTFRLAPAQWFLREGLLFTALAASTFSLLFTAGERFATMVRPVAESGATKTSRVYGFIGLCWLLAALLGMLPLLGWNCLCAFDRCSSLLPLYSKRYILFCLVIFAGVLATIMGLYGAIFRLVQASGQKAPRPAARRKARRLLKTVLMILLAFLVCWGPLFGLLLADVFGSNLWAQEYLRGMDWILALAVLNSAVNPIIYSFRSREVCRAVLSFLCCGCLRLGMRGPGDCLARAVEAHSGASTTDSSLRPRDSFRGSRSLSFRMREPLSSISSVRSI
Procedure, shortened: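 Cells loaded overnight at RT with 5 μM coelenterazine h in DMEM/HAM's F12 with HEPES plus 0.1% fatty acid-free BSA, then injected onto compounds; agonist-induced calcium luminescence recorded for 90 s and integrated. Signal normalised to digitonin (100 μM) or ATP (20 μM) wells, S1P as reference agonist; sigmoidal nonlinear regression.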

EC50 [1] [µM] | EC50 [2] [µM] | EC50 (S1P4) [µM] | SMILES
1 to 10 | > 1 | > 1 | O=C(O)C1CC(N2CC3(Cc4ccc(OCc5ccc(OCC6CC6)cc5)cc4C3)C2)C1 (stereo not drawn) [Example 84, 3-(5′-((4-(cyclopropylmethoxy)benzyl)oxy)-1′,3′-dihydrospiro[azetidine-3,2′-inden]-1-yl)cyclobutanecarboxylic acid]
1 to 10 | > 1 | < 1 | CCOc1cc(F)c(COc2ccc3c(c2)CC2(C3)CN(C3CC(C(=O)O)C3)C2)c(F)c1 (stereo not drawn) [Example 85, 3-(5′-((4-ethoxy-2,6-difluorobenzyl)oxy)-1′,3′-dihydrospiro[azetidine-3,2′-inden]-1-yl)cyclobutanecarboxylic acid]
1 to 10 | > 1 | < 1 | CCOc1ccc(COc2ccc3c(c2)CC2(C3)CN(C3CC(C(=O)O)C3)C2)c(F)c1F (stereo not drawn) [Example 86, 3-(5′-((4-ethoxy-2,3-difluorobenzyl)oxy)-1′,3′-dihydrospiro[azetidine-3,2′-inden]-1-yl)cyclobutanecarboxylic acid]
≤ 0.01 | > 1 | < 1 | O=C(O)C1CC(N2CC3(Cc4ccc(OCc5c(F)cccc5C5CC5)cc4C3)C2)C1 (stereo not drawn) [Example 87, 3-(5′-((2-cyclopropyl-6-fluorobenzyl)oxy)-1′,3′-dihydrospiro[azetidine-3,2′-inden]-1-yl)cyclobutanecarboxylic acid]
1 to 10 | > 1 | < 1 | COc1ccc(COc2ccc3c(c2)CC2(C3)CN(C3CC(C(=O)O)C3)C2)c(C)n1 (stereo not drawn) [Example 88, 3-(5′-((6-methoxy-2-methylpyridin-3-yl)methoxy)-1′,3′-dihydrospiro[azetidine-3,2′-inden]-1-yl)cyclobutanecarboxylic acid]
0.01 to 0.1 | > 1 | < 1 | O=C(O)[C@H]1C[C@H](N2CC3(Cc4ccc(OCc5cc(Cl)ccc5Cl)cc4C3)C2)C1 [Example 89, (1r,3r)-3-(5′-((2,5-dichlorobenzyl)oxy)-1′,3′-dihydrospiro[azetidine-3,2′-inden]-1-yl)cyclobutanecarboxylic acid]
0.1 to 1 | > 1 | < 1 | O=C(O)[C@H]1C[C@@H](N2CC3(Cc4ccc(OCc5cc(Cl)ccc5Cl)cc4C3)C2)C1 [Example 90, (1s,3s)-3-(5′-((2,5-dichlorobenzyl)oxy)-1′,3′-dihydrospiro[azetidine-3,2′-inden]-1-yl)cyclobutanecarboxylic acid]
≤ 0.01 | < 1 | < 1 | O=C(O)C1CC(N2CC3(Cc4ccc(OCc5c(Cl)cccc5C5CC5)cc4C3)C2)C1 (stereo not drawn) [Example 91, 3-(5′-((2-chloro-6-cyclopropylbenzyl)oxy)-1′,3′-dihydrospiro[azetidine-3,2′-inden]-1-yl)cyclobutanecarboxylic acid]
≤ 0.01 | > 1 | < 1 | O=C(O)C1CC(N2CC3(Cc4ccc(OCc5c(Cl)cccc5Cl)cc4C3)C2)C1 (stereo not drawn) [Example 92, 3-(5′-((2,6-dichlorobenzyl)oxy)-1′,3′-dihydrospiro[azetidine-3,2′-inden]-1-yl)cyclobutanecarboxylic acid]
0.01 to 0.1 | > 1 | < 1 | O=C(O)C1CC(N2CC3(Cc4ccc(OCc5cc(Cl)ccc5Cl)cc4C3)C2)C1 (stereo not drawn) [Example 93, 3-(5′-((2,5-dichlorobenzyl)oxy)-1′,3′-dihydrospiro[azetidine-3,2′-inden]-1-yl)cyclobutanecarboxylic acid]
≤ 0.01 | < 1 | < 1 | CCc1cccc(Cl)c1COc1ccc2c(c1)CC1(C2)CN(C2CC(C(=O)O)C2)C1 (stereo not drawn) [Example 94, 3-(5′-((2-chloro-6-ethylbenzyl)oxy)-1′,3′-dihydrospiro[azetidine-3,2′-inden]-1-yl)cyclobutanecarboxylic acid]
≤ 0.01 | < 1 | < 1 | O=C(O)C1CC(N2CC3(Cc4ccc(C#Cc5ccc(OC6CCCC6)nc5)cc4C3)C2)C1 (stereo not drawn) [Example 95, 3-(5′-((6-(cyclopentyloxy)pyridin-3-yl)ethynyl)-1′,3′-dihydrospiro[azetidine-3,2′-inden]-1-yl)cyclobutanecarboxylic acid]
0.01 to 0.1 | < 1 | > 1 | CC(C)Oc1ccc(C#Cc2ccc3c(c2)CC2(C3)CN(C3CC(C(=O)O)C3)C2)cn1 (stereo not drawn) [Example 96, 3-(5′-((6-isopropoxypyridin-3-yl)ethynyl)-1′,3′-dihydrospiro[azetidine-3,2′-inden]-1-yl)cyclobutanecarboxylic acid]
≤ 0.01 | < 1 | > 1 | CC(C)Oc1ccc(C#Cc2ccc3c(c2)CC2(C3)CN(C3CC(C(=O)O)C3)C2)cc1 (stereo not drawn) [Example 97, 3-(5′-((4-isopropoxyphenyl)ethynyl)-1′,3′-dihydrospiro[azetidine-3,2′-inden]-1-yl)cyclobutanecarboxylic acid]
0.01 to 0.1 | < 1 | > 1 | CCOc1ccc(C#Cc2ccc3c(c2)CC2(C3)CN(C3CC(C(=O)O)C3)C2)cc1 (stereo not drawn) [Example 98, 3-(5′-((4-ethoxyphenyl)ethynyl)-1′,3′-dihydrospiro[azetidine-3,2′-inden]-1-yl)cyclobutanecarboxylic acid]
0.1 to 1 | < 1 | > 1 | O=C(O)C1CC(N2CC3(Cc4ccc(C#Cc5ccc(OCC6CC6)nc5)cc4C3)C2)C1 (stereo not drawn) [Example 99, 3-(5′-((6-(cyclopropylmethoxy)pyridin-3-yl)ethynyl)-1′,3′-dihydrospiro[azetidine-3,2′-inden]-1-yl)cyclobutanecarboxylic acid]
≤ 0.01 | < 1 | > 1 | CCOc1ccc(C#Cc2ccc3c(c2)CC2(C3)CN(C3CC(C(=O)O)C3)C2)cc1F (stereo not drawn) [Example 100, 3-(5′-((4-ethoxy-3-fluorophenyl)ethynyl)-1′,3′-dihydrospiro[azetidine-3,2′-inden]-1-yl)cyclobutanecarboxylic acid]
1 to 10 | > 1 | < 1 | COc1ccc(C#Cc2ccc3c(c2)CC2(C3)CN(C3CC(C(=O)O)C3)C2)c(C)c1 (stereo not drawn) [Example 101, 3-(5′-((4-methoxy-2-methylphenyl)ethynyl)-1′,3′-dihydrospiro[azetidine-3,2′-inden]-1-yl)cyclobutanecarboxylic acid]
≤ 0.01 | > 1 | < 1 | CC1CCC(C#Cc2ccc3c(c2)CC2(C3)CN(C3CC(C(=O)O)C3)C2)CC1 (stereo not drawn) [Example 102, 3-(5′-((4-methylcyclohexyl)ethynyl)-1′,3′-dihydrospiro[azetidine-3,2′-inden]-1-yl)cyclobutanecarboxylic acid]
≤ 0.01 | < 1 | < 1 | CC(Oc1ccc(C#Cc2ccc3c(c2)CC2(C3)CN(C3CC(C(=O)O)C3)C2)cn1)C(F)(F)F (stereo not drawn) [Example 103, 3-(5′-((6-((1,1,1-trifluoropropan-2-yl)oxy)pyridin-3-yl)ethynyl)-1′,3′-dihydrospiro[azetidine-3,2′-inden]-1-yl)cyclobutanecarboxylic acid]
≤ 0.01 | > 1 | < 1 | O=C(O)C1CC(N2CC3(Cc4ccc(OC5CCc6ccccc65)cc4C3)C2)C1 (stereo not drawn) [Example 104, 3-(5′-((2,3-dihydro-1H-inden-1-yl)oxy)-1′,3′-dihydrospiro[azetidine-3,2′-inden]-1-yl)cyclobutanecarboxylic acid]
1 to 10 | > 1 | < 1 | O=C(O)C1CC(N2CC3(Cc4ccc(OCCc5ccccc5C(F)(F)F)cc4C3)C2)C1 (stereo not drawn) [Example 105, 3-(5′-(2-(trifluoromethyl)phenethoxy)-1′,3′-dihydrospiro[azetidine-3,2′-inden]-1-yl)cyclobutanecarboxylic acid]
≤ 0.01 | < 1 | < 1 | O=C(O)C1CC(N2CC3(Cc4ccc(OC5CCc6cccc(Cl)c65)cc4C3)C2)C1 (stereo not drawn) [Example 106, 3-(5′-((7-chloro-2,3-dihydro-1H-inden-1-yl)oxy)-1′,3′-dihydrospiro[azetidine-3,2′-inden]-1-yl)cyclobutanecarboxylic acid]
0.1 to 1 | > 1 | > 1 | CCOc1ccc(C#Cc2ccc3c(c2)CC2(C3)CN(CC3(C(=O)O)CC3)C2)cc1 [Example 112, 1-((5′-((4-ethoxyphenyl)ethynyl)-1′,3′-dihydrospiro[azetidine-3,2′-inden]-1-yl)methyl)cyclopropanecarboxylic acid]
